Measurements from US10273235B2, “Compositions and methods for inhibiting β-lactamase” (LegoChem Biosciences, Inc., priority 2015, dated 2019).
Several values for one entry are separate records, joined by “and”; a condition that tells them apart may be missing. Equal entries are not always repeated.

Key:
Format in all cases: cell-based
[1] = tested on: K. pneumoniae KU2; assay: BLI potentiation MIC, K. pneumoniae KU2; conditions: Klebsiella pneumoniae, no BLI, incubation 19 h, read-out: MIC of Meropenem alone
Method: (§1) MIC90 (μg/mL) is the lowest concentration of an antibiotic that will inhibit the visible growth of 90% of microorganisms after incubation as compared with a control group to which the antibiotic is not treated.
(§2) MIC values were measured by the broth microdilution method developed by the Clinical and Laboratory Standards Institute (CLSI) (see CLSI M07-A9, Methods for Dilution Antimicrobial Susceptibility Test for Bacteria that Grow Aerobically; Approved Standard-Ninth Edition (2012): CLSI, Villanova, Pa.). The in vitro antibacterial activity was measured with respect to the following 9 clinical isolates: P. aeruginosa (3 strains); K. pneumoniae (6 strains). The in vitro antibacterial activity of selected compounds was measured with respect to the following 15 clinical isolates: K. pneumoniae (15 strains).

[2] = tested on: K. pneumoniae NDM-506; assay: BLI potentiation MIC, K. pneumoniae NDM-506; conditions: Klebsiella pneumoniae, NDM506; no BLI; incubation 19 h; read-out: MIC of Meropenem alone
Method: as §1, §2

[3] = tested on: K. pneumoniae 6540; assay: BLI potentiation MIC, K. pneumoniae 6540; conditions: no BLI, incubation 19 h
Method: as §1, §2

[4] = tested on: K. pneumoniae 5971(KOX); assay: BLI potentiation MIC, K. pneumoniae 5971(KOX); conditions: no BLI, incubation 19 h
Method: as §1, §2

[5] = tested on: K. pneumoniae 101; assay: BLI potentiation MIC, K. pneumoniae 101; conditions: no BLI, incubation 19 h
Method: as §1, §2

[6] = tested on: K. pneumoniae 5576; assay: BLI potentiation MIC, K. pneumoniae 5576 (SHV-11, CMY-2, DHA-1, TEM-1); conditions: no BLI, incubation 19 h
Method: as §1, §2

[7] = tested on: K. pneumoniae 5117; assay: BLI potentiation MIC, K. pneumoniae 5117 (SHV-11, TEM-1); conditions: no BLI, incubation 19 h
Method: as §1, §2

[8] = tested on: P. aeruginosa ARC3506; assay: BLI potentiation MIC, P. aeruginosa ARC3506 (VEB-1, OXA-10, OprD−, AmpC); conditions: Pseudomonas aeruginosa, ARC3506; no BLI; incubation 19 h; read-out: MIC of Meropenem alone
Method: as §1, §2

[9] = tested on: K. pneumoniae 6839; assay: BLI potentiation MIC, K. pneumoniae 6839 (SHV-11, SHV-12, DHA-1); conditions: no BLI, incubation 19 h
Method: as §1, §2

[10] = tested on: E. coli K0519020; assay: MIC of strain used for extraction of enzymes, E. coli K0519020 (CTX-M-15, TEM-1, OXA-1, AmpC (NC_000913)); conditions: Escherichia coli, K0519020; no BLI; read-out: MIC of Meropenem alone
[11] = tested on: K. pneumoniae ATCC700603; assay: BLI potentiation MIC, K. pneumoniae ATCC700603 (SHV-3); conditions: no BLI, incubation 19 h
Method: as §1, §2

[12] = tested on: P. aeruginosa ARC3514; assay: BLI potentiation MIC, P. aeruginosa ARC3514 (KPC-2, OprD−, AmpC); conditions: Pseudomonas aeruginosa, ARC3514, 19 h, no BLI; incubation 19 h; read-out: MIC of Meropenem alone
Method: as §1, §2

[13] = tested on: K. pneumoniae 100; assay: BLI potentiation MIC, K. pneumoniae 100; conditions: Klebsiella pneumoniae, 100; no BLI; incubation 19 h; read-out: MIC of Meropenem alone
Method: as §1, §2

[14] = tested on: K. pneumoniae 3784; assay: BLI potentiation MIC, K. pneumoniae 3784 (SHV-11, SHV-12, DHA-1); conditions: Klebsiella pneumoniae, 3784, 19 h, no BLI; incubation 19 h; read-out: MIC of Meropenem alone
Method: as §1, §2

[15] = tested on: K. pneumoniae 5216; assay: BLI potentiation MIC, K. pneumoniae 5216 (TEM-1A); conditions: no BLI, incubation 19 h
Method: as §1, §2

[16] = tested on: K. pneumoniae 4006; assay: BLI potentiation MIC, K. pneumoniae 4006 (SHV-12, CTX-M-15, TEM-1, OXA-9); conditions: no BLI, incubation 19 h
Method: as §1, §2

[17] = tested on: K. pneumoniae CL5761; assay: MIC of strain used for extraction of enzymes, K. pneumoniae CL5761 (KPC-3, TEM-216, SHV-5); conditions: Klebsiella pneumoniae, CL5761; no BLI; read-out: MIC of Meropenem alone
Method: as §1, §2

[18] = tested on: E. aerogenes K9911729; assay: MIC of strain used for extraction of enzymes, E. aerogenes K9911729 (CMY-10, TEM-1, SHV-12, AmpC (DQ478697)); conditions: Klebsiella aerogenes, K9911729; no BLI; read-out: MIC of Meropenem alone
[19] = tested on: P. aeruginosa ATCC27853; assay: BLI potentiation MIC (broth microdilution), P. aeruginosa ATCC27853 (PoxB, AmpC); conditions: Pseudomonas aeruginosa, ATCC27853, 19 h, no BLI; incubation 19 h; read-out: MIC of Meropenem alone
Method: as §1, §2

[20] = tested on: K. pneumoniae 4248; assay: BLI potentiation MIC, K. pneumoniae 4248 (SHV-11, CTX-M-15, TEM-1, OXA-1); conditions: Klebsiella pneumoniae, 4248, 19 h, no BLI; incubation 19 h; read-out: MIC of Meropenem alone
Method: as §1, §2

[21] = tested on: K. pneumoniae MP14; assay: BLI potentiation MIC, K. pneumoniae MP14; conditions: no BLI, incubation 19 h
Method: as §1, §2

[22] = tested on: E. coli ECO200; assay: MIC of strain used for extraction of enzymes, E. coli ECO200 (NDM-1, TEM-1, CTX-M-15, EC (AmpC), OXA-2 type); conditions: Escherichia coli, ECO200, read-out: MIC of Meropenem alone
[23] = tested on: E. coli TOPDXA048; assay: MIC of strain used for extraction of enzymes, E. coli TOPDXA048 (OXA-48, TEM-116, AmpC (NC_000913)); conditions: Escherichia coli, TOPDXA048, read-out: MIC of Meropenem alone

C[C@@H](O)[C@H]1C(=O)N2C(C(=O)O)=C(S[C@@H]3CN[C@H](C(=O)N(C)C)C3)[C@H](C)[C@H]12 [Meropenem]
MIC [1]: > 64 µg/mL
MIC [2]: > 64 µg/mL
MIC ([3]; Klebsiella pneumoniae, 6540, 19 h, read-out: MIC of Meropenem alone): 1 µg/mL
MIC of Meropenem alone [3]: 0.5 µg/mL
MIC ([4]; Klebsiella pneumoniae, 19 h, read-out: MIC of Meropenem alone): 64 µg/mL
MIC of Meropenem alone [4]: 32 µg/mL
MIC ([5]; Klebsiella pneumoniae, 101, 19 h, read-out: MIC of Meropenem alone): > 64 µg/mL
MIC of Meropenem alone [5]: 64 µg/mL and 32 µg/mL
MIC ([6]; Klebsiella pneumoniae, 5576, 19 h, read-out: MIC of Meropenem alone): 1 µg/mL
MIC of Meropenem alone [6]: 2 µg/mL
MIC ([7]; Klebsiella pneumoniae, 5117, 19 h, read-out: MIC of Meropenem alone): 8 µg/mL
MIC of Meropenem alone [7]: 4 µg/mL
MIC [8]: 64 µg/mL
MIC ([9]; Klebsiella pneumoniae, 6839, 19 h, read-out: MIC of Meropenem alone): 4 µg/mL
MIC of Meropenem alone [9]: 2 µg/mL
MIC [10]: 1 µg/mL
MIC ([11]; Klebsiella pneumoniae, ATCC700603, 19 h, read-out: MIC of Meropenem alone): 0.125 µg/mL
MIC of Meropenem alone [11]: 0.25 µg/mL
MIC [12]: > 64 µg/mL
MIC [13]: 4 µg/mL
MIC [14]: 2 µg/mL
MIC ([15]; Klebsiella pneumoniae, 5216, 19 h, read-out: MIC of Meropenem alone): 64 µg/mL
MIC of Meropenem alone [15]: 32 µg/mL
MIC ([16]; Klebsiella pneumoniae, 4006, 19 h, read-out: MIC of Meropenem alone): 0.5 µg/mL
MIC of Meropenem alone [16]: 1 µg/mL
MIC [17]: > 64 µg/mL
MIC [18]: 0.5 µg/mL
MIC [19]: 2 µg/mL
MIC [20]: 0.125 µg/mL
MIC ([21]; Klebsiella pneumoniae, MP14, 19 h, read-out: MIC of Meropenem alone): > 64 µg/mL
MIC of Meropenem alone [21]: 64 µg/mL
MIC [22]: > 64 µg/mL
MIC [23]: 0.25 µg/mL
